One may read the melting point as the temperature, or range, at which the solid turns liquid.

Drawing on patent publication US20080234199A1, “Chemical Compounds” (Smithkline Beecham Corporation, priority 2005, published 2008), this text covers melting point for 2 molecules.

`CCC(=C(c1ccc(O)cc1)c1ccc(O)cc1)c1ccc(/C=C/C(=O)O)cc1` [Example 1, (2E)-3-{4-[1-ethyl-2,2-bis(4-hydroxyphenyl)ethenyl]phenyl}-2-propenoic acid] displayed a melting point of 280 to 281 °C. In turn, `CCC(=C(c1ccc(O)cc1)c1ccc(O)cc1)c1ccc(OCCO)c(OC)c1` [Example 27, 4,4′-{2-[4-[(2-hydroxyethyl)oxy]-3-(methyloxy)phenyl]-1-butene-1,1-diyl}diphenol] displayed a melting point of 158 to 159 °C.
